Tests used:
Test in all cases: relative viability (nuclei count vs DMSO), 5 days (fraction); higher = more cells survive
NCI-H2347 = system: NCI-H2347
How it was run: (§1)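 Relative viability equals treated-well nuclei counts divided by vehicle-well nuclei counts. Counts came from 4× images of lung cancer cell lines grown in 1536-well plates for 5 days after pin-tool dosing on the day after seeding. Dosing used one drug alone or a fixed anchor-drug dose plus five library-drug doses (not always all listed) in √10 steps, and values are medians of duplicate plates.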

H3255 = system: H3255
How it was run: as §1

201T = system: 201T
How it was run: as §1

NCI-H1793 = system: NCI-H1793
How it was run: as §1

LU99A = system: LU99A
How it was run: as §1

NCI-H1650 = system: NCI-H1650
How it was run: as §1

A-427 = system: A-427
How it was run: as §1

PC-14 = system: PC-14
How it was run: as §1

LCLC-103H = system: LCLC-103H
How it was run: as §1

COR-L23 = system: COR-L23
How it was run: as §1

NCI-H727 = system: NCI-H727
How it was run: as §1

SW 900 = system: SW 900
How it was run: as §1

LC-2-ad = system: LC-2-ad
How it was run: as §1

PC-3 [JPC-3] = system: PC-3 [JPC-3]
How it was run: as §1

LK-2 = system: LK-2
How it was run: as §1

NCI-H460 = system: NCI-H460
How it was run: as §1

NCI-H23 = system: NCI-H23
How it was run: as §1

LCLC-97TM1 = system: LCLC-97TM1
How it was run: as §1

NCI-H2228 = system: NCI-H2228
How it was run: as §1

HCC-44 = system: HCC-44
How it was run: as §1

SW 1573 = system: SW 1573
How it was run: as §1

Compound: O=c1cc(-c2cccc3c2Sc2ccccc2S3)oc(N2CCOCC2)c1 + CC(=O)c1c(C)c2cnc(Nc3ccc(N4CCNCC4)cn3)nc2n(C2CCCC2)c1=O [Palbociclib] (partner 0.5 µM)
- relative viability (NCI-H2347; first compound 0.08 µM): 0.42
- relative viability (NCI-H2347; first compound 0.253 µM): 0.483
- relative viability (NCI-H2347; first compound 0.8 µM): 0.453
- relative viability (NCI-H2347; first compound 2.53 µM): 0.39
- relative viability (NCI-H2347; first compound 8 µM): 0.483
- relative viability (H3255; first compound 0.08 µM): 0.334
- relative viability (H3255; first compound 0.253 µM): 0.295
- relative viability (H3255; first compound 0.8 µM): 0.305
- relative viability (H3255; first compound 2.53 µM): 0.278
- relative viability (H3255; first compound 8 µM): 0.33
- relative viability (201T; first compound 0.08 µM): 0.348
- relative viability (201T; first compound 0.253 µM): 0.362
- relative viability (201T; first compound 0.8 µM): 0.373
- relative viability (201T; first compound 2.53 µM): 0.348
- relative viability (201T; first compound 8 µM): 0.359
- relative viability (NCI-H1793; first compound 0.08 µM): 0.21
- relative viability (NCI-H1793; first compound 0.253 µM): 0.308
- relative viability (NCI-H1793; first compound 0.8 µM): 0.311
- relative viability (NCI-H1793; first compound 2.53 µM): 0.257
- relative viability (NCI-H1793; first compound 8 µM): 0.273
- relative viability (LU99A; first compound 0.08 µM): 0.413
- relative viability (LU99A; first compound 0.253 µM): 0.417
- relative viability (LU99A; first compound 0.8 µM): 0.491
- relative viability (LU99A; first compound 2.53 µM): 0.463
- relative viability (LU99A; first compound 8 µM): 0.449
- relative viability (NCI-H1650; first compound 0.08 µM): 0.377
- relative viability (NCI-H1650; first compound 0.253 µM): 0.38
- relative viability (NCI-H1650; first compound 0.8 µM): 0.284
- relative viability (NCI-H1650; first compound 2.53 µM): 0.311
- relative viability (NCI-H1650; first compound 8 µM): 0.353
- relative viability (A-427; first compound 0.08 µM): 0.513
- relative viability (A-427; first compound 0.253 µM): 0.509
- relative viability (A-427; first compound 0.8 µM): 0.49
- relative viability (A-427; first compound 2.53 µM): 0.502
- relative viability (A-427; first compound 8 µM): 0.548
- relative viability (PC-14; first compound 0.08 µM): 0.552
- relative viability (PC-14; first compound 0.253 µM): 0.746
- relative viability (PC-14; first compound 0.8 µM): 0.578
- relative viability (PC-14; first compound 2.53 µM): 0.46
- relative viability (PC-14; first compound 8 µM): 0.489
- relative viability (LCLC-103H; first compound 0.08 µM): 0.461
- relative viability (LCLC-103H; first compound 0.253 µM): 0.51
- relative viability (LCLC-103H; first compound 0.8 µM): 0.477
- relative viability (LCLC-103H; first compound 2.53 µM): 0.46
- relative viability (LCLC-103H; first compound 8 µM): 0.448
- relative viability (COR-L23; first compound 0.08 µM): 0.291
- relative viability (COR-L23; first compound 0.253 µM): 0.307
- relative viability (COR-L23; first compound 0.8 µM): 0.393
- relative viability (COR-L23; first compound 2.53 µM): 0.334
- relative viability (COR-L23; first compound 8 µM): 0.34
- relative viability (NCI-H727; first compound 0.08 µM): 0.613
- relative viability (NCI-H727; first compound 0.253 µM): 0.813
- relative viability (NCI-H727; first compound 2.53 µM): 0.512
- relative viability (NCI-H727; first compound 8 µM): 0.613
- relative viability (SW 900; first compound 0.253 µM): 0.557
- relative viability (SW 900; first compound 0.8 µM): 0.555
- relative viability (SW 900; first compound 2.53 µM): 0.492
- relative viability (SW 900; first compound 8 µM): 0.469
- relative viability (LC-2-ad; first compound 0.08 µM): 0.513
- relative viability (LC-2-ad; first compound 0.253 µM): 0.51
- relative viability (LC-2-ad; first compound 0.8 µM): 0.469
- relative viability (LC-2-ad; first compound 2.53 µM): 0.502
- relative viability (LC-2-ad; first compound 8 µM): 0.425
- relative viability (PC-3 [JPC-3]; first compound 0.08 µM): 0.471
- relative viability (PC-3 [JPC-3]; first compound 0.253 µM): 0.54
- relative viability (PC-3 [JPC-3]; first compound 0.8 µM): 0.559
- relative viability (PC-3 [JPC-3]; first compound 2.53 µM): 0.482
- relative viability (PC-3 [JPC-3]; first compound 8 µM): 0.584
- relative viability (LK-2; first compound 0.08 µM): 0.515
- relative viability (LK-2; first compound 0.253 µM): 0.8
- relative viability (LK-2; first compound 0.8 µM): 0.637
- relative viability (LK-2; first compound 2.53 µM): 0.767
- relative viability (LK-2; first compound 8 µM): 0.881
- relative viability (NCI-H460; first compound 0.08 µM): 0.0971
- relative viability (NCI-H460; first compound 0.253 µM): 0.159
- relative viability (NCI-H460; first compound 0.8 µM): 0.13
- relative viability (NCI-H460; first compound 2.53 µM): 0.154
- relative viability (NCI-H460; first compound 8 µM): 0.135
- relative viability (NCI-H23; first compound 0.08 µM): 0.57
- relative viability (NCI-H23; first compound 0.253 µM): 0.485
- relative viability (NCI-H23; first compound 0.8 µM): 0.498
- relative viability (NCI-H23; first compound 2.53 µM): 0.451
- relative viability (NCI-H23; first compound 8 µM): 0.451
- relative viability (LCLC-97TM1; first compound 0.08 µM): 0.247
- relative viability (LCLC-97TM1; first compound 0.253 µM): 0.26
- relative viability (LCLC-97TM1; first compound 0.8 µM): 0.245
- relative viability (LCLC-97TM1; first compound 2.53 µM): 0.228
- relative viability (LCLC-97TM1; first compound 8 µM): 0.241
- relative viability (NCI-H2228; first compound 0.08 µM): 0.766
- relative viability (NCI-H2228; first compound 0.253 µM): 0.766
- relative viability (NCI-H2228; first compound 0.8 µM): 0.901
- relative viability (NCI-H2228; first compound 2.53 µM): 0.608
- relative viability (NCI-H2228; first compound 8 µM): 0.758
- relative viability (HCC-44; first compound 0.08 µM): 0.965
- relative viability (HCC-44; first compound 0.253 µM): 0.918
- relative viability (HCC-44; first compound 0.8 µM): 0.919
- relative viability (HCC-44; first compound 2.53 µM): 0.958
- relative viability (HCC-44; first compound 8 µM): 0.962
- relative viability (SW 1573; first compound 0.08 µM): 0.426
- relative viability (SW 1573; first compound 0.253 µM): 0.414
- relative viability (SW 1573; first compound 0.8 µM): 0.448
- relative viability (SW 1573; first compound 2.53 µM): 0.377
- relative viability (SW 1573; first compound 8 µM): 0.362

— the supplement of paper PMC10307832
